Measured values published in the kinase profiling compilation of Christmann-Franck et al. (2016).

Tests used:
Experiment in all cases: KINOMEscan competition binding
Conditions in all cases: compound 1.0 µM
MYO3B (human) = MYO3B (human) (UniProt Q8WXR4)
TEC (human) = TEC (human) (UniProt P42680)
MAPK7 (human) = MAPK7 (human) (UniProt Q13164)
PIP4K2B (human) = PIP4K2B (human) (UniProt P78356)
SRPK3 (human) = SRPK3 (human) (UniProt Q9UPE1)
PIK3CD (human) = PIK3CD (human) (UniProt O00329)
SIK2 (human) = SIK2 (human) (UniProt Q9H0K1)
BRSK2 (human) = BRSK2 (human) (UniProt Q8IWQ3)
[1] = system: FLT3 (human), P36888 [D835H]
MAP4K5 (human) = MAP4K5 (human) (UniProt Q9Y4K4)
MAPK15 (human) = MAPK15 (human) (UniProt Q8TD08)
PRKAA1 (human) = PRKAA1 (human) (UniProt Q13131)
[2] = biological target: JAK1 JH2 pseudokinase (human) (UniProt P23458)
[3] = system: ABL1 (human), P00519 [E255K]
STK25 (human) = STK25 (human) (UniProt O00506)
LIMK2 (human) = LIMK2 (human) (UniProt P53671)
[4] = system: ABL1 (human), P00519 [M351T]
[5] = system: PIK3CA (human), P42336 [C420R]
NEK1 (human) = NEK1 (human) (UniProt Q96PY6)
PIK3C2B (human) = PIK3C2B (human) (UniProt O00750)
STK38L (human) = STK38L (human) (UniProt Q9Y2H1)
CDK4 CCND1 (human) = CDK4 CCND1 (human) (UniProt P11802+P24385)
[6] = system: FLT3 (human), P36888 [D835Y]
EPHB1 (human) = EPHB1 (human) (UniProt P54762)
HIPK1 (human) = HIPK1 (human) (UniProt Q86Z02)
CIT (human) = CIT (human) (UniProt O14578)
CAMK2A (human) = CAMK2A (human) (UniProt Q9UQM7)
NTRK1 (human) = NTRK1 (human) (UniProt P04629)
TTK (human) = TTK (human) (UniProt P33981)
STK17B (human) = STK17B (human) (UniProt O94768)
AKT2 (human) = AKT2 (human) (UniProt P31751)
CaMK1 (human) = CaMK1 (human) (UniProt Q14012)
LYN (human) = LYN (human) (UniProt P07948)
STK10 (human) = STK10 (human) (UniProt O94804)
[7] = system: EIF2AK4 KD2 (human), Q9P2K8 [S808G]
STK11 (human) = STK11 (human) (UniProt Q15831)
EPHB2 (human) = EPHB2 (human) (UniProt P29323)
CSNK1G3 (human) = CSNK1G3 (human) (UniProt Q9Y6M4)
TAOK3 (human) = TAOK3 (human) (UniProt Q9H2K8)
TXK (human) = TXK (human) (UniProt P42681)
NUAK1 (human) = NUAK1 (human) (UniProt O60285)
CAMK1D (human) = CAMK1D (human) (UniProt Q8IU85)
BTK (human) = BTK (human) (UniProt Q06187)

Sequence of SRPK3 (human) (Q9UPE1 whole entry, looked up): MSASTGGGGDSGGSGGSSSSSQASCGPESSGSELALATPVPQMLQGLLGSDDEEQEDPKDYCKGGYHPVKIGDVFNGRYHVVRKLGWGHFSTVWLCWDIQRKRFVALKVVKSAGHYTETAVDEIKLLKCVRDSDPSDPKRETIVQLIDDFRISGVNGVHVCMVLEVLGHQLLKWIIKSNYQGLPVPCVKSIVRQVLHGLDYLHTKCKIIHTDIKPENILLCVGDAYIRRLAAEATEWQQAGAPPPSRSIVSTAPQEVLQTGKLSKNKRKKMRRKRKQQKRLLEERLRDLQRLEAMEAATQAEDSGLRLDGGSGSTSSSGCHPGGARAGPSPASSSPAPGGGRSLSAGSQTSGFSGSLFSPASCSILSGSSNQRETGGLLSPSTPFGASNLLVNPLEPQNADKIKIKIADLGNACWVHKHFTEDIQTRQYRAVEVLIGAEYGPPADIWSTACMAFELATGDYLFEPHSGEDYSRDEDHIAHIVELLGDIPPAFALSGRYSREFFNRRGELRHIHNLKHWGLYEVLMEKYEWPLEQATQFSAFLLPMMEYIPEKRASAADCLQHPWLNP
Sequence of STK10 (human) (O94804 whole entry, looked up): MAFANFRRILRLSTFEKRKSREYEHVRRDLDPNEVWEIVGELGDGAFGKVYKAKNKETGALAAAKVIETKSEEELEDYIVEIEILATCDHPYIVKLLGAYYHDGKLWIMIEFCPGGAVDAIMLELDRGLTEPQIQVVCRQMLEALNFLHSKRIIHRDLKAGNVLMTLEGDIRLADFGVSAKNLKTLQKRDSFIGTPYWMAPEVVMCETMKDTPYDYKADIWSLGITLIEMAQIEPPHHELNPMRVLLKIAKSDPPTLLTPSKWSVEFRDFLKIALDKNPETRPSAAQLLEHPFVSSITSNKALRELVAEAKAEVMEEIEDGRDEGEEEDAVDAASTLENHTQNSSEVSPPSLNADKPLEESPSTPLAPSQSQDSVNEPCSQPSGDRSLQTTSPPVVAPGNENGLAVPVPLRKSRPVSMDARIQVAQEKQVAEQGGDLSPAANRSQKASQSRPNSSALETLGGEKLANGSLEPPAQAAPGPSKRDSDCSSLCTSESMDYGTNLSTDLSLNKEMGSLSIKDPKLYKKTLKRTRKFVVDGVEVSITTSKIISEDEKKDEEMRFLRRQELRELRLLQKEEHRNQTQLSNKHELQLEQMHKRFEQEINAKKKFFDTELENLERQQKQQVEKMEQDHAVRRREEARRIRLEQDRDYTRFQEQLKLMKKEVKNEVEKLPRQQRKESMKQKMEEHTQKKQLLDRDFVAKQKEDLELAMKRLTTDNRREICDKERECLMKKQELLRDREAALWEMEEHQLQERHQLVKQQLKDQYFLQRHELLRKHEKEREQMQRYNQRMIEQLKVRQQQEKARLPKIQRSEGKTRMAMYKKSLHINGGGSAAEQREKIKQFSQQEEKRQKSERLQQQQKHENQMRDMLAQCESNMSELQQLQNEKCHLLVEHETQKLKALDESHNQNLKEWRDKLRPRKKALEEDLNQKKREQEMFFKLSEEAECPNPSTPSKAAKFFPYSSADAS
Sequence of STK38L (human) (Q9Y2H1 whole entry, looked up): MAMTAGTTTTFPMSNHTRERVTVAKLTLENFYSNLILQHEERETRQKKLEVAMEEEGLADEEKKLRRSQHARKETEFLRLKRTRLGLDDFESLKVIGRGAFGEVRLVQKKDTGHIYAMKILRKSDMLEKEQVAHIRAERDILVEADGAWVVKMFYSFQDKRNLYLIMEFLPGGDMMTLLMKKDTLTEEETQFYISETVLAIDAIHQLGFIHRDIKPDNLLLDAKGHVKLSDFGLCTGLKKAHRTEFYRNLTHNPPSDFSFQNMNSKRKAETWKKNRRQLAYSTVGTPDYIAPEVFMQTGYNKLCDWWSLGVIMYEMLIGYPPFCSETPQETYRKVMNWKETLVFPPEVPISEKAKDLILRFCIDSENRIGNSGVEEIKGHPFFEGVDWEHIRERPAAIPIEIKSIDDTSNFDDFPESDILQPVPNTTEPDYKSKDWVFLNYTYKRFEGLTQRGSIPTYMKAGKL
Sequence of EPHB1 (human) (P54762 whole entry, looked up): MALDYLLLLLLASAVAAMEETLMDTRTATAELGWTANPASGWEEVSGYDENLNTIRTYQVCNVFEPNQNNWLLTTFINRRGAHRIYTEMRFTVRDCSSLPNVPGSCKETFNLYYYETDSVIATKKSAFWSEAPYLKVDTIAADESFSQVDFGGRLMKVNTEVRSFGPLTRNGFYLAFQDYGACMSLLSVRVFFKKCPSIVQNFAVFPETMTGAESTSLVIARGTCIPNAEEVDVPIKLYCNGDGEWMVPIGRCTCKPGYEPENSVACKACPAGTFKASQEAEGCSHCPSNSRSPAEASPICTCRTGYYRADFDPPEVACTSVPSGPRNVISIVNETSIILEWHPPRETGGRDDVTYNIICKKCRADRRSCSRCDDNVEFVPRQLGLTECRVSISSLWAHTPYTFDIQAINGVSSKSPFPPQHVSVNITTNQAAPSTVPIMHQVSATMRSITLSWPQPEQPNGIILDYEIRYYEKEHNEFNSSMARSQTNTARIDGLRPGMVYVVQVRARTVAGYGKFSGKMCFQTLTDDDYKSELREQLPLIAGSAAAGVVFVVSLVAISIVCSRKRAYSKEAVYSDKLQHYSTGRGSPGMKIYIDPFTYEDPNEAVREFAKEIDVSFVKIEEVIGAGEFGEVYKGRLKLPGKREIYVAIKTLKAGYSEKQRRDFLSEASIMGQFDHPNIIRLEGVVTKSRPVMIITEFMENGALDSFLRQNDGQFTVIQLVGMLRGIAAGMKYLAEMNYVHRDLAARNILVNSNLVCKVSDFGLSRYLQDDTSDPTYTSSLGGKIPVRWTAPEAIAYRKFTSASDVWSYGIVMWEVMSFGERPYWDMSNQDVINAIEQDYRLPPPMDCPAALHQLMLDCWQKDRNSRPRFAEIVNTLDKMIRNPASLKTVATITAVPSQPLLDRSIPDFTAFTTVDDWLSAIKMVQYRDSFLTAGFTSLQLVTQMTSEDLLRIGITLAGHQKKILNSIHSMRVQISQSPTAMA
Sequence of TAOK3 (human) (Q9H2K8 whole entry, looked up): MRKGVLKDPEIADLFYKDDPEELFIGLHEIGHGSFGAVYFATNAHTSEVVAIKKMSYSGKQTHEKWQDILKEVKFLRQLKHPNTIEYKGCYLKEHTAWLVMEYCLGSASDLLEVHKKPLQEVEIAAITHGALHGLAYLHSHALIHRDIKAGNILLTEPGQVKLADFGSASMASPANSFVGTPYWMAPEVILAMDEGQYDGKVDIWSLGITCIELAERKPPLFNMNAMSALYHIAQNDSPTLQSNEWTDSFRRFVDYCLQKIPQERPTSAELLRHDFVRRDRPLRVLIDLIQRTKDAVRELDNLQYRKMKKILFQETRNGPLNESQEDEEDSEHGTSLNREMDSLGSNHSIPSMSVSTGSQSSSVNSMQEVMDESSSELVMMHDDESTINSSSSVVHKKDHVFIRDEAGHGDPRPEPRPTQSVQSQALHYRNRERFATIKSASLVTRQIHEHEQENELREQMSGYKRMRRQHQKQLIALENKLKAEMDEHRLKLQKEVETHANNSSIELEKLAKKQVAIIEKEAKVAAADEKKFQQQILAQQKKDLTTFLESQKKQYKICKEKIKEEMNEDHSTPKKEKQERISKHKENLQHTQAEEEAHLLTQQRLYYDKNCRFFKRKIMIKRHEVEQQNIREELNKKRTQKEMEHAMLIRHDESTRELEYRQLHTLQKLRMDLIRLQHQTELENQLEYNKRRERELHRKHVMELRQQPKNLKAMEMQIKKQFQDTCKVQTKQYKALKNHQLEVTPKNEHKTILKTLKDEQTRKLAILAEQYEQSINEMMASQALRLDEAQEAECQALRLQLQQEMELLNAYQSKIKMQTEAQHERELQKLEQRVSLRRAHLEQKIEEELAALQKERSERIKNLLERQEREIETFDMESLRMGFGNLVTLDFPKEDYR
Sequence of MAPK15 (human) (Q8TD08 whole entry, looked up): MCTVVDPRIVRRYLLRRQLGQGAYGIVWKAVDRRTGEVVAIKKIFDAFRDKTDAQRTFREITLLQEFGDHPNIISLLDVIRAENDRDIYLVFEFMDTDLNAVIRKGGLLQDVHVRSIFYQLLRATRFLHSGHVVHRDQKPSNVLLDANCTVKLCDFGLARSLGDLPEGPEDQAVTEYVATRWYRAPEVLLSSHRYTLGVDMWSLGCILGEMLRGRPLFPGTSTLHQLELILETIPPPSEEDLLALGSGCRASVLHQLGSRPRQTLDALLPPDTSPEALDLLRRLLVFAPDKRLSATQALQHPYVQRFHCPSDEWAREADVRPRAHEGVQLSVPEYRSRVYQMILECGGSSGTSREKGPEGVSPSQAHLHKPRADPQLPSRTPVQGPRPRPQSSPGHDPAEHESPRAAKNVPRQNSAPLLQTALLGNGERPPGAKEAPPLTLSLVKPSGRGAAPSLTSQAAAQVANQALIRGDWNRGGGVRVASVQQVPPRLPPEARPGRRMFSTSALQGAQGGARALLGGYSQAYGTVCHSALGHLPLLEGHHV
Sequence of PIP4K2B (human) (P78356 whole entry, looked up): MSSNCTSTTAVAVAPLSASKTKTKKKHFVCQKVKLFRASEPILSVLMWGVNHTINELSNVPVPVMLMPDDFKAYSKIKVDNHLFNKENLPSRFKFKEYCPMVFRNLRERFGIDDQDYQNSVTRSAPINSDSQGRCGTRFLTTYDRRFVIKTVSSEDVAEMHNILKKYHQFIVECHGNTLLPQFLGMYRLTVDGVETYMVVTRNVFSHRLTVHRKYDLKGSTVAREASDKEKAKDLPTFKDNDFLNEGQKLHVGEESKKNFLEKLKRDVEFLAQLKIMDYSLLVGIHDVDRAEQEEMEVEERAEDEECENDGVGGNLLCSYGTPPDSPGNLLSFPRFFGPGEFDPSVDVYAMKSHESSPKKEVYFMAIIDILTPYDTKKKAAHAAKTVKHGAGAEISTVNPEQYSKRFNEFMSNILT

Compound: COCCNCCCn1c(C(=O)CF)c(-c2ccc(C)cc2)c2c(N)ncnc21
- kinase still bound, per cent of control (MYO3B (human)): 79%
- kinase still bound, per cent of control (TEC (human)): 100%
- kinase still bound, per cent of control (MAPK7 (human)): 100%
- kinase still bound, per cent of control (PIP4K2B (human)): 94%
- kinase still bound, per cent of control (SRPK3 (human)): 78%
- kinase still bound, per cent of control (PIK3CD (human)): 100%
- kinase still bound, per cent of control (SIK2 (human)): 82%
- kinase still bound, per cent of control (BRSK2 (human)): 100%
- kinase still bound, per cent of control [1]: 100%
- kinase still bound, per cent of control (MAP4K5 (human)): 86%
- kinase still bound, per cent of control (MAPK15 (human)): 96%
- kinase still bound, per cent of control (PRKAA1 (human)): 100%
- kinase still bound, per cent of control [2]: 100%
- kinase still bound, per cent of control [3]: 90%
- kinase still bound, per cent of control (STK25 (human)): 100%
- kinase still bound, per cent of control (LIMK2 (human)): 100%
- kinase still bound, per cent of control [4]: 96%
- kinase still bound, per cent of control [5]: 100%
- kinase still bound, per cent of control (NEK1 (human)): 100%
- kinase still bound, per cent of control (PIK3C2B (human)): 100%
- kinase still bound, per cent of control (STK38L (human)): 92%
- kinase still bound, per cent of control (CDK4 CCND1 (human)): 98%
- kinase still bound, per cent of control [6]: 100%
- kinase still bound, per cent of control (EPHB1 (human)): 94%
- kinase still bound, per cent of control (HIPK1 (human)): 96%
- kinase still bound, per cent of control (CIT (human)): 93%
- kinase still bound, per cent of control (CAMK2A (human)): 78%
- kinase still bound, per cent of control (NTRK1 (human)): 82%
- kinase still bound, per cent of control (TTK (human)): 95%
- kinase still bound, per cent of control (STK17B (human)): 96%
- kinase still bound, per cent of control (AKT2 (human)): 95%
- kinase still bound, per cent of control (CaMK1 (human)): 100%
- kinase still bound, per cent of control (LYN (human)): 97%
- kinase still bound, per cent of control (STK10 (human)): 100%
- kinase still bound, per cent of control [7]: 100%
- kinase still bound, per cent of control (STK11 (human)): 98%
- kinase still bound, per cent of control (EPHB2 (human)): 92%
- kinase still bound, per cent of control (CSNK1G3 (human)): 98%
- kinase still bound, per cent of control (TAOK3 (human)): 100%
- kinase still bound, per cent of control (TXK (human)): 100%
- kinase still bound, per cent of control (NUAK1 (human)): 98%
- kinase still bound, per cent of control (CAMK1D (human)): 100%
- kinase still bound, per cent of control (BTK (human)): 87%
